Measurements: patent US12416018B2, “Regulation of gene expression by aptamer-mediated modulation of alternative splicing” (MEIRAGTX GENE REGULATION LIMITED, priority 2015, dated 2025)
“Also recorded” adds a separate entry of the source. Read-outs that look alike come from different tables or passages of the source. Each block holds one molecule with its values, some of them ahead of it.

Assays:
xpt-G15 double cassette = test: Guanine dose response of luciferase expression, xpt-G15 double; assay type: cell-based
Method: (§1) Constructs were made using Golden Gate cloning strategy (NEB). […] Luciferase activity was assayed as described in Example 5.

[1] = system: xpt-G17 containing cassette; test: Guanine dose response of luciferase expression, single xpt-G17 cassette; assay type: cell-based; settings: single copy xpt-G17 cassette
Method: as §1

[2] = system: luciferase gene with two copies of the xpt-G15 containing regulatory cassette (xpt-G15 double); test: Live animal bioluminescence imaging after hydrodynamic DNA delivery to mouse liver; assay type: in vivo, mice
Method: Hydrodynamic DNA delivery and drug treatment: 5 μg or 10 μg of endotoxin-free plasmid DNA containing the luciferase gene with two copies of the xpt-G15 containing regulatory cassette (xpt-G15 double, SEQ ID NO.: 64; Example 8, FIG. 8a), diluted in saline (Qiagen Endofree kit) was injected through tail vein in a volume of 10% body weight over 5 to 10 seconds to 6-7 weeks old CD-1 female mice. Guanosine (Sigma) was suspended in 0.5% methylcellulose/0.25% Tween 80 (Sigma) in water freshly and administrated orally at 2 hr and 12 hr post DNA injection, or, delivered through intraperitoneal injection (IP) at 5 hr, 12 hr, 16 hr and 24 hr post DNA delivery.
Noninvasive live animal bioluminescence imaging: before imaging, mice were anesthesized with 2% isoflurane, and injected with […] body weight of luciferin, and images were taken within 2 to 5 minutes after luciferin injection using Bruker Xtreme system at the indicated time point post DNA injection. Luciferase activity was expressed as mean photon/sec±s.d. The induction fold was calculated as the quotient of photon/sec obtained in mice treated with guanosine divided by value obtained in mice without guanosine treatment.

[3] = system: luciferase expression in HEK 293 cells; assay type: cell-based; settings: for induced luciferase level as percent of Con1 (maximal expression): guanine treatment (500 μM), HEK 293 cells; for fold induction of luciferase expression over un-induced baseline: 500 µM; for regulation of luciferase expression by guanine (in words): with or without 500 μM guanine
Method: (§2) Xpt-guanine aptamer with the following sequence: cactcatataat[…]cgact atgggtg (SEQ ID NO.: 10), was used to construct a riboswitch. Oligos containing the sequence of guanine aptamer and hairpin stem with 4 nucleotide 5′ overhang were synthesized (IDT), annealed and then ligated to BsaI-digested DHFR-acceptor vector. HEK 293 cells were transfected as described in Example 1. Four hours after transfection, the media was aspirated, and new media with or without 500 μM guanine was added. Luciferase expression was assayed 20 to 24 hrs after guanine treatment as described in Example 1 and Example 4. HepG2, AML12, RD and C2C12 (ATCC) were cultured using the protocol recommended by ATCC. The intron-exon-intron cassette containing the xpt-G17 riboswitch (SEQ ID NO.: 15) was inserted in the leader peptide sequences of the anti-KDR antibody gene and into the Stul site in mouse erythropoietin gene using Gibson cloning strategy (NEB). Constructs containing mouse erythropoietin (Epo) or anti-KDR antibody were transfected into HEK 293 cells. Four hour after transfection, the media was aspirated, and new media with or without 500 μM guanine was added. Supernatants were subjected to ELISA assay for the production of either anti-KDR antibody or the production of mouse Epo (R&D Systems).
as §1
The Con1 construct was used as a template for PCR amplification of intron fragments that have either upstream or downstream intron deletions. To generate constructs that have single intron deletions, PCR products were cloned into the constructs containing the xpt-G17 riboswitch using Golden Gate cloning strategy (NEB). To generate constructs with both upstream and downstream intron deletions, fragments released by EcoRI and BamHI from constructs with single deletions in the downstream intron sequence were cloned into EcoRI and BamHI-digested constructs with single deletions in the upstream intron sequence.
Sequences of mutant human Wilms tumor 1 exon 5 (mutWT1-e5, SEQ ID NO.: 61), SIRT1 exon 6 (SIRT1-e6, SEQ ID NO.: 62), mouse calcium/calmodulin-dependent protein kinase II delta exon 16, or 17 (Camk2d-e16 or e17, SEQ ID NOs.: 59, 60), and synthetic exon ENEEE (SEQ ID NO.: 63) were synthesized (IDT) and cloned into the DHFR-G17 vector in place of the DHFR exon using Gibson Cloning kit (NEB). Plasmid DNA was transfected into HEK 293 cells, treated with 500 μM guanine, and luciferase assay performed as described in Example 1. The sequences of each exon with 5′ and 3′ splice sites are shown with exonic sequences in uppercase letters (Table 5, SEQ ID NOS.: 59 to 63).

[4] = system: luciferase expression in HepG2 cells; assay type: cell-based
Method: as §2

[5] = system: luciferase expression in HEK 293 cells; assay type: cell-based; settings: for luciferase expression with / without theophylline (in words): HEK 293 cells
Excerpt: A DHFR-acceptor vector was constructed to facilitate the cloning of an aptamer sequence attached to the hairpin stems with different length. The theophylline aptamer sequence used was: ggcgatac[…]gcagegtc (SEQ ID NO:9). Theophylline aptamer oligonucleotides (“oligos”) with 4 nucleotide overhang at 5′ end were synthesized (IDT), annealed and ligated to BsaI-digested DHFR-acceptor vector. HEK 293 cells were transfected with the luciferase reporter constructs with the regulation cassette containing the theophylline aptamer, as described in Example 1. Four hours after transfection, the media was aspirated, and new media with or without 3 mM theophylline was added, and luciferase was assayed 20 to 24 hours after theophylline treatment. The fold induction was expressed as the quotient of luciferase activity obtained in the presence of aptamer ligand divided by the value obtained in the absence of the aptamer ligand.

[6] = system: EGFP expression in HEK 293 cells; test: Flow cytometry / imaging of EGFP with regulatory cassettes in HEK 293 cells; assay type: cell-based; settings: stably transfected HEK 293, 500 μM guanine
Method: The intron-mtDHFR-aptamer-intron cassette was PCR amplified and cloned using Golden Gate cloning strategy (NEB) into pEGFP-C1 vector. To obtain a cell line stably expressing EGFP with riboswitch, HEK-293 cells were electroporated with 20 ng of plasmid DNA. Forty eight hours after electroporation, cell culture was selected with 800 μg/ml G418 for 2 weeks for cells that stably express the cassette. Cells were trypsinized and cell suspension was subjected to flow cytometric analysis of intensity of GFP fluorescence using a Guava EasyCyte 8HT machine. The resulting data was analyzed using GuavaSoft2.2.2.
as §1

[7] = system: anti-KDR antibody production in HEK 293 cells; assay type: cell-based; settings: 500 μM guanine
Method: as §2

EC50 for xpt-G15 double relative to single xpt-G17 (times lower) (xpt-G15 double cassette; xpt-G15 double vs xpt-G17): 5 times | EC50 (xpt-G15 double cassette; xpt-G15 double, luciferase): 43 µM | EC50 [1]: 206 µM
Molecule: Nc1nc2nc[nH]c2c(=O)[nH]1 [guanine]

Molecule: Nc1nc2c(ncn2[C@@H]2O[C@H](CO)[C@@H](O)[C@H]2O)c(=O)[nH]1 [guanosine]
fold induction at 100 mg/kg ([2]; Mus musculus, ip, 100 mg/kg guanosine intraperitoneally, 11 hours post DNA injection, read-out: fold induction of luciferase compared to uninduced baseline): 4.7 | fold induction at 300 mg/kg ([2]; Mus musculus, ip, 300 mg/kg guanosine intraperitoneally, 11 hours post DNA injection, read-out: fold induction of luciferase compared to uninduced baseline): 16.2 | luciferase expression in liver after oral guanosine (in words) ([2]; oral dosing 2 hr and 12 hr after DNA delivery): higher luciferase expression at 9 hours post DNA; also recorded: dose related activation of expression of the regulated target gene in the liver of the mice | time of highest luciferase expression post DNA injection ([2]; oral guanosine): 48 h

Molecule: DHFR_G14: luciferase construct with xpt-guanine aptamer cassette, truncated stem (chain 1 GTAGAAGGTAATGTGATAT; chain 2 CTATCACATTACGCAC; expressed or natural sequence)
induced luciferase level as percent of Con1 (maximal expression) [3]: ~100%

Molecule: DHFR_G15: luciferase construct with the xpt-G15 containing regulatory cassette (SEQ ID NO: 46) (chain 1 GTAGAAGGTAATGTGTAT; chain 2 CTACACATTACGCAC; chemistry not fully specified)
fold induction of luciferase expression over un-induced baseline [3]: 60 fold | induced luciferase level as percent of Con1 (maximal expression) [3]: ~100%

Molecule: DHFR_G16: luciferase construct with xpt-guanine aptamer cassette, truncated stem (chain 1 GTAGAAGGTAATGTTAT; chain 2 CTAACATTACGCAC; chemistry not fully specified)
fold induction of luciferase expression over un-induced baseline [3]: about 800 fold | induced luciferase level as percent of Con1 (maximal expression) [3]: 83%

Molecule: DHFR_G17: luciferase construct containing xpt-G17 regulatory cassette (SEQ ID NO: 15) (chain 1 GTAGAAGGTAATGTAT; chain 2 CTACATTACGCAC; chemistry not fully specified)
induced luciferase level as percent of Con1 (maximal expression) [3]: about 65% | fold induction of luciferase expression [4]: more than 500 fold

Molecule: DHFR_Theo13: theophylline aptamer cassette, 8 bp stem (chain 1 TTCAGTAGAAGGTAATGTGA; chain 2 GCACATTACGCACCAT; chemistry not fully specified)
luciferase expression with / without theophylline (in words) [5]: luciferase expression is suppressed in the absence of theophylline | luciferase level as percent of Con1 control vector ([5]; in the presence of theophylline (3 mM)): about 56%

Molecule: DHFR_Theo14: theophylline aptamer cassette, 7 bp stem (chain 1 TTCAGTAGAAGGTAATGTA; chain 2 GACATTACGCACCAT; expressed or natural sequence)
luciferase expression with / without theophylline (in words) [5]: no luciferase expression either with or without theophylline

B1: Camk2d-e16: DHFR-G17 vector with mouse calcium/calmodulin-dependent protein kinase II delta exon 16 in place of DHFR exon; SEQ ID NO: 59 (nucleic acid)
DNA: GAGTAACGCTGTTTCTCTAACTTGTAGTGAGCCCCAAACTACTGTAATCCACAACCCTGACGGAAACAAGGTAATGT
regulation of luciferase expression by guanine (in words) ([3]; listed as CaMKIId-e16): equivalent fold induction to the DHFR exon with SRp40 activating mutation (mtDHFR) | regulation of luciferase expression by guanine (in words) ([3]; listed as CamkIId-e16): nearly equivalent fold induction compared to DHFR-xpt-G17

B2: 2IR-3: xpt-G17 cassette, two intron deletions; SEQ ID NO: 31 (nucleic acid)
DNA: GTGAGTCTATGGGACCCTTGATGTTTTCTTTCCCTGCTCAAATCAGGGTAATTTTGCATTTGTAATTTTAAAAAATGCTTTCTTCTTTTAATATACTTTTTTGTTTATCTTATTTCTAATACTTTCCCTAATCTCTTTCTTTCAGGGCAATAATGATACAATGTATCATGCCGAGTAACGCTGTTTCTCTAACTTGTAGGAATGAATTCAGATATTTCCAGAGAATGAAAAAAAAATCTTCAGTAGAAGGTAATGTATAATCGCGTGGATATGGCACGCAAGTTTCTACCGGGCACCGTAAATGTCCGACTACATTACGCACCATTCTAAAGAATAACAGTGATAATTTCTGGGTTAAGGCAATAGCTGCTGAGGTTTCATATTGCTAATAGCAGCTACAATCCAGCTACCATTCTGCTTTTATTTTATGGTTGGGATAAGGCTGGATTATTCTGAGTCCAAGCTAGGCCCTTTTGCTAATCATGTTCATACCTCTTATCTTCCTCCCACAG
modifications: xpt-G17-2IR-3
fold induction of luciferase expression over un-induced baseline [3]: 4744 fold | regulation of luciferase expression by guanine (in words) [3]: significant increase in the fold of target gene expression

B3: xpt-G17: intron-exon-intron cassette containing the xpt-G17 guanine riboswitch, SEQ ID NO: 15, inserted in various target genes (nucleic acid)
DNA: GTGAGTCTATGGGACCCTTGATGTTTTCTTTCCCCTTCTTTTCTATGGTTAAGTTCATGTCATAGGAAGGGGAGAAGTAACAGGGTACACATATTGACCAAATCAGGGTAATTTTGCATTTGTAATTTTAAAAAATGCTTTCTTCTTTTAATATACTTTTTTGTTTATCTTATTTCTAATACTTTCCCTAATCTCTTTCTTTCAGGGCAATAATGATACAATGTATCATGCCGAGTAACGCTGTTTCTCTAACTTGTAGGAATGAATTCAGATATTTCCAGAGAATGAAAAAAAAATCTTCAGTAGAAGGTAATGTATAATCGCGTGGATATGGCACGCAAGTTTCTACCGGGCACCGTAAATGTCCGACTACATTACGCACCATTCTAAAGAATAACAGTGATAATTTCTGGGTTAAGGCAATAGCAATATTTCTGCATATAAATATTTCTGCATATAAATTGTAACTGATGTAAGAGGTTTCATATTGCTAATAGCAGCTACAATCCAGCTACCATTCTGCTTTTATTTTATGGTTGGGATAAGGCTGGATTATTCTGAGTCCAAGCTAGGCCCTTTTGCTAATCATGTTCATACCTCTTATCTTCCTCCCACAG
modifications: xpt-G17 riboswitch
time after guanine treatment at which fluorescence was detected [6]: 6 h | induced antibody expression as percent of control construct containing the Con 1 intron sequences [7]: about 40%
